Data as given in patent US12692254B2, “Benzimidazole inhibitors of PAD enzymes” (BRISTOL-MYERS SQUIBB COMPANY, priority 2018, dated 2026).

Biological target: human PAD4 (hPAD4) (Homo sapiens, UniProt Q9UM07)
Test: RFMS human PAD4 functional assay (rapid-fire mass spectrum)
Assay type: biochemical
Details: 5 nM hPAD4 enzyme, 250 μM BAEE, 50 μM Calcium; 30 min preincubation, 90 min reaction at 37° C.
Summary of the method: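 PAD4 (10 nM) preincubated 30 min with compound (top final 50 μM), then BAEE substrate added in pH 7.5 HEPES buffer with DTT, 50 μM calcium, TPEN; 90 min at 37° C. After TCA quench, citrulline derivatized with phenyl glyoxal (4 mM final, 30 min, 37° C) and quantified by RapidFire MS against internal standard.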

human PAD4 (hPAD4), sequence (Q9UM07 whole entry): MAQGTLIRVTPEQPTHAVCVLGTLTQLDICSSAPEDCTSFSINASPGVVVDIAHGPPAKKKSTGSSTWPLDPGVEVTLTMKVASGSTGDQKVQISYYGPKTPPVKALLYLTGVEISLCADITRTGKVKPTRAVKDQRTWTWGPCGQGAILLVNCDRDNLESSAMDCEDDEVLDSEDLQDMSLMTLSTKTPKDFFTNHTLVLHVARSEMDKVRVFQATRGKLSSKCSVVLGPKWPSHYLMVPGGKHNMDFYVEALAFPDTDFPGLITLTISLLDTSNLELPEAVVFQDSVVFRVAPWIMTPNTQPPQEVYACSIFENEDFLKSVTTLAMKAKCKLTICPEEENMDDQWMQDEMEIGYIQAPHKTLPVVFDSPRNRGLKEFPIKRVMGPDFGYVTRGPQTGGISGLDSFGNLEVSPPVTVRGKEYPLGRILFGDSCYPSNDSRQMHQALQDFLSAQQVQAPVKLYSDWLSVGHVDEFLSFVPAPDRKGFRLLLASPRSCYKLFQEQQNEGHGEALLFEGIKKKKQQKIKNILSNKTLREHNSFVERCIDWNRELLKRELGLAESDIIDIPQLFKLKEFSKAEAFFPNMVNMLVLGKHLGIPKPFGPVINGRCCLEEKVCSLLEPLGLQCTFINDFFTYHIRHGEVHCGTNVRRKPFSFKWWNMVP

SMILES	IC50 [nM]
CCS(=O)(=O)N1CC(n2c(-c3cc4cccnc4n3CC3CC3)nc3cc(C(=O)N4CC5CCC4[C@@H]5N)cc(OC)c32)C1 (stereo partly drawn) [Example 327, (1R,4R.,7R)-2-{2-[1-(cyclopropylmethyl)-1H-pyrrolo[2,3-b]pyridin-2-yl]-1-[1-(ethanesulfonyl)azetidin-3-yl]-7-methoy-1H-1,3-benzodiazole-5-carbonyl}-2-azabicyclo[2.2.1]heptan-7-amine]	57
COc1cc(C(=O)N2CC3CCC2[C@@H]3N)cc2nc(-c3cc4cccnc4n3CC3CC3)n(C3CN(S(=O)(=O)C4CC4)C3)c12 (some centres unmarked) [Example 328]	125
COc1cc(C(=O)N2C[C@H]3CC[C@@H]2[C@@H]3N)cc2nc(-c3cc4cccnc4n3CC3CC3)n(C3CN(S(=O)(=O)c4ccccc4)C3)c12 [Example 329, (1R,4R,7R)-2-{1-[1-(benzenesulfonyl)azetidin-3-yl]-2-[1-(cyclopropylmethyl)-1H-pyrrolo[2,3-b]pyridin-2-yl]-7-methoxy-1H-1,3-benzodiazole-5-carbonyl}-2-azabicyclo[2.2.1]heptan-7-amine]	163
COc1cc(C(=O)N2C[C@H]3CC[C@@H]2[C@@H]3N)cc2nc(-c3cc4cccnc4n3CC3CC3)n(C3CN(S(C)(=O)=O)C3)c12 [Example 330, (1R,4R,7R)-2-{2-[1-(cyclopropylmethyl)-1H-pyrrolo[2,3-b]pyridin-2-yl]-1-(1-methanesulfonylazetidin-3-yl)-7-methoxy-1H-1,3-benzodiazole-5-carbonyl}-2-azabicyclo[2.2.1]heptan-7-amine]	184
COc1cc(C(=O)N2C[C@H]3CC[C@@H]2[C@@H]3N)cc2nc(-c3cc4cccnc4n3CC3CC3)n(C3CN(S(=O)(=O)CC4CC4)C3)c12 [Example 331, (1R,4R,7R)-2-[1-(1-cyclopropylmethanesulfonylazetidin-3-yl)-2-[1-(cyclopropylmethyl)-1H-pyrrolo[2,3-b]pyridin-2-yl]-7-methoxy-1H-1,3-benzodiazole-5-carbonyl]-2-azabicyclo[2.2.1]heptan-7-amine]	190
COc1cc(C(=O)N2C[C@H]3CC[C@@H]2[C@@H]3N)cc2nc(-c3cc4cccnc4n3CC3CC3)n(CC3CN(S(=O)(=O)C4CC4)C3)c12 [Example 332, (1R,4R,7R)-2-(1-{[1-(cyclopropanesulfonyl)azetidin-3-yl]methyl}-2-[1-(cyclopropylmethyl)-1H-pyrrolo[2,3-b]pyridin-2-yl]-7-methoxy-1H-1,3-benzodiazole-5-carbonyl)-2-azabicyclo[2.2.1]heptan-7-amine]	219
COc1cc(C(=O)N2CC3CCC2[C@@H]3N)cc2nc(-c3cc4cccnc4n3CC3CC3)n(CC3CN(S(=O)(=O)c4cccc(F)c4)C3)c12 (some centres unmarked) [Example 333]	222
COc1cc(C(=O)N2C[C@H]3CC[C@@H]2[C@@H]3N)cc2nc(-c3cc4cccnc4n3CC3CC3)n(CC3CN(S(=O)(=O)c4ccc(Cl)nc4)C3)c12 [Example 334, (1R,4R,7R)-2-[1-({1-[(6-chloropyridin-3-yl)sulfonyl]azetidin-3-yl}methyl)-2-[1-(cyclopropylmethyl)-1H-pyrrolo[2,3-b]pyridin-2-yl]-7-methoxy-1H-1,3-benzodiazole-5-carbonyl]-2-azabicyclo[2.2.1]heptan-7-amine]	225
COc1cc(C(=O)N2C[C@H]3CC[C@@H]2[C@@H]3N)cc2nc(-c3cc4cccnc4n3CC3CC3)n(CC3CN(S(=O)(=O)C(C)C)C3)c12 [Example 335, (1R,4R,7R)-2-{2-[1-(cyclopropylmethyl)-1H-pyrrolo[2,3-b]pyridin-2-yl]-7-methoxy-1-{[1-(propane-2-sulfonyl)azetidin-3-yl)methyl}-1H-1,3-benzodiazole-5-carbonyl}-2-azabicyclo[2.2.1]heptan-7-amine]	245
CCS(=O)(=O)N1CC(Cn2c(-c3cc4cccnc4n3CC3CC3)nc3cc(C(=O)N4CC5CCC4[C@@H]5N)cc(OC)c32)C1 (stereo partly drawn) [Example 336, (1R,4R.,7R)-2-{2-[1-(cyclopropylmethyl)-1H-pyrrolo[2,3-b]pyridin-2-yl]-1-{[1-(ethanesulfonyl)azetidin-3-yl]methyl}-7-methoxy-1H-1,3-benzodiazole-5-carbonyl}-2-azabicyclo[2.2,1]heptan-7-amine]	310
COc1cc(C(=O)N2CC3CCC2[C@@H]3N)cc2nc(-c3cc4cccnc4n3CC3CC3)n(C3CN(S(=O)(=O)c4ccc(Cl)nc4)C3)c12 (some centres unmarked) [Example 337]	479
COc1cc(C(=O)N2C[C@H]3CC[C@@H]2[C@@H]3N)cc2nc(-c3cc4cccnc4n3CC3CC3)n(CC3CN(S(C)(=O)=O)C3)c12 [Example 338, (1R,4R,7R)-2-{2-[1-(cyclopropylmethyl)-1H-pyrrolo[2,3-b]pyridin-2-yl]-1-[(1-methanesulfonylazetidin-3-yl)methyl]-7-methoxy-1H-1,3-benzodiazole-5-carbonyl}-2-azabicyclo[2.2.1]heptan-7-amine]	498
COc1cc(C(=O)N2CC3CCC2[C@@H]3N)cc2nc(-c3cc4cccnc4n3CC3CC3)n(C3CN(S(=O)(=O)c4ccc(C#N)cc4)C3)c12 (stereo partly drawn) [Example 339, 4-[(3-{5-[(1R,4R,7R)-7-amino-2-azabicyclo[2.2.1]heptane-2-carbonyl]-2-[1-(cyclopropylmethyl)-1H-pyrrolo[2,3-b]pyridin-2-yl]-7-methoxy-1H-1,3-benzodiazo1-1-yl}azetidin-1-yl)sulfonyl]benzonitrile]	536
COc1cc(C(=O)N2CC3CCC2[C@@H]3N)cc2nc(-c3cc4cccnc4n3CC3CC3)n(C3CN(S(=O)(=O)C(F)(F)F)C3)c12 (stereo partly drawn) [Example 340, (1R,,4R,7R)-2-{2-[1-(cyclopropylmethyl)-1H-pyrrolo[2,3-b]pyridin-2-yl]-7-methoxy-1-(1-trifluoromethanesulfonylazetidin-3-yl)-1H-1,3-benzodiazole-5-carbonyl}-2-azabicyclo[2.2.1]heptan-7-amine]	1260
COc1cc(C(=O)N2CCC[C@@H](N)C2)cc2nc(-c3cc4cccnc4n3CC3CC3)n(C3CN(S(C)(=O)=O)C3)c12 [Example 341, (3R)-1-{2-[1-(cyclopropylmethyl)-1H-pyrrolo[2,3-b]pyridin-2-yl]-1-(1-methanesulfonylazetidin-3-yl)-7-methoxy-IH-1,3-benzodiazole-5-carbonyl}piperidin-3-amine]	2980
COc1cc(C(=O)N2CC3CCC2[C@@H]3N)cc2nc(-c3cc4cccnc4n3CC3CC3)n(Cc3cnn(-c4ncc(Cl)cc4F)c3)c12 (stereo partly drawn) [Example 342, ((7R)-7-amino-2-azabicyclo[2.2.1]heptan-2-yl)(1-((1-(5-chloro-3-fluoropyridin-2-yl)-1H-pyrazol-4-yl)methyl)-2-(1-(cyclopropylmethyl)-1H-pyrrolo[2,3-b]pyridin-2-yl)-7-methoxy-1H-benzo[d]imidazol-5-yl)methanone]	26
COc1ncccc1-n1cc(Cn2c(-c3cc4cccnc4n3CC3CC3)nc3cc(C(=O)N4C[C@H](N)C[C@@H](F)C4)cc(OC)c32)cn1 [Example 343, (3R,5R)-1-{2-[1-(cyclopropylmethyl)-1H-pyrrolo[2,3-b]pyridin-2-yl]-7-methoxy-1-{[1-(2-methoxypyridin-3-yl)-1H-pyrazol-4-yl]methyl}-1H-1,3-benzodiazole-5-carbonyl}-5-fluoropiperidin-3-amine]	116
COc1cc(C(=O)N2C[C@H](N)C[C@@H](F)C2)cc2nc(-c3cc4cccnc4n3CC3CC3)n(Cc3cnn(-c4cccc(F)n4)c3)c12 [Example 344, (3R,5R)-1-{2-[1-(cyclopropylmethyl)-1H-pyrrolo[2,3-b]pyridin-2-yl]-1-{[1-(6-fluoropyridin-2-yl)-1H-pyrazol-4-yl]methyl}-7-methoxy-1H-1,3-benzodiazole-5-carbonyl}-5-fluoropiperidin-3-amine]	39
COc1cc(C(=O)N2C[C@H](N)C[C@@H](F)C2)cc2nc(-c3cc4cccnc4n3CC3CC3)n(Cc3cnn(-c4ccc(F)cn4)c3)c12 [Example 345, (3R,5R)-1-{2-[1-(cyclopropylmethyl)-1H-pyrrolo[2,3-b]pyridin-2-yl]-1-{[1-(5-fluoropyridin-2-yl)-1H-pyrazol-4-yl]methyl}-7-methoxy-1H-1,3-benzodiazole-5-carbonyl}-5-fluoropiperidin-3-amine]	49
COc1cc(C(=O)N2CC3CCC2[C@@H]3N)cc2nc(-c3cc4cccnc4n3CC3CC3)n(Cc3cnn(-c4cncc(C#N)c4)c3)c12 (stereo partly drawn) [Example 346, 5-[4-({5-[(7R)-7-amino-2-azabicyclo[2.2.1]heptane-2-carbonyl]-2-[1-(cyclopropylmethyl)-1H-pyrrolo[2,3-b]pyridin-2-yl]-7-methoxy-1H-1,3-benzodiazol-1-yl}methyl)-1H-pyrazol-1-yl]pyridine-3-carbonitrile]	61
COc1cc(C(=O)N2C[C@H](N)C[C@@H](F)C2)cc2nc(-c3cc4cccnc4n3CC3CC3)n(Cc3cnn(-c4cccn(C)c4=O)c3)c12 [Example 347, 3-[4-({5-[(3R,5R)-3-amino-5-fluoropiperidine-1-carbonyl]-2-[1-(cyclopropyimethyl)-1H-pyrrolo[2,3-b]pyridin-2-yl]-7-methoxy-1H-1,3-benzodiazol-1-yl}methyl)-1H-pyrazol-1-yl]-1-methyl-1,2-dihydropyridin-2-one]	97
COc1cc(C(=O)N2CC3CCC2[C@@H]3N)cc2nc(-c3cc4ccccc4n3CC3CC3)n(Cc3cnn(-c4ccccn4)c3)c12 (stereo partly drawn) [Example 348, (7R)-2-{2-[1-(cyclopropylmethyl)-1H-indol-2-yl]-7-methoxy-1-{[1-(pyridin-2-yl)-1H-pyrazol-4-yl]methyl}-1H-1,3-benzodiazoie-5-carbonyl}-2-azabicyclo[2.2.1]heptan-7-amine]	14
COc1cncc(-n2cc(Cn3c(-c4cc5ccccc5n4CC4CC4)nc4cc(C(=O)N5CC6CCC5[C@@H]6N)cc(OC)c43)cn2)c1 (stereo partly drawn) [Example 349, (7R)-2-{2-[1-(cyclopropylmethyl)-1H-indol-2-yl]-7-methoxy-1-{[1-(5-methoxypyridin-3-yl)-1H-pyrazol-4-yl]methyl}-1H-1,3-benzodiazole-5-carbonyl)-2-azabicyclo[2.2.1]heptan-7-amine]	15
